The text below walks through data of patent US8795740B2, “Drip tray tablet” (Novapharm Research (Australia) Pty Ltd, priority 2003, dated 2014).

This data set can be described thus: preservation of enzyme activity in the tablet in use. The data set is classed as physicochemical. To be noted: in the non-dissolved part of the tablet. The source says: A preferred boron compound is borax, which the present inventors have found acts to preserve the enzyme activity in use for at least 3 months in the non-dissolved part of the tablet. The present invention thus provides matching between the enzyme activity and tablet dissolution parameters.

On to `O=BOB(O)OB(O)OB=O` [borax, Borax], for which the “time for which enzyme activity is preserved in use” value was “at least 3 months”.
